The text below walks through data of patent US10016383B2, “Inhibitors of metallo-β-lactamase-enzymes” (McMaster University, priority 2013, dated 2018).

Read-outs that look alike come from different tables or passages of the source.

Series [1] concerns K. pneumoniae N11-2218. In words: Mouse lethal systemic infection, survival. The class given is in vivo, CD1 mice. The settings on record: monotherapy (alone). An excerpt: (§1) All animals were housed in specific pathogen-free units in the Central Animal Facility at McMaster University. All experimental protocols were approved by, and performed in accordance with the McMaster Animal Research Ethics Board. Female CD1 mice were purchased from Charles River.
(§2) Mice were infected intraperitoneally (ip) with a dose of 2×10^6 colony forming units (cfu) of Klebsiella pneumoniae N11-2218 for all organ bacterial load experiments, or with a dose of 5×10^7cfu for all survival experiments. For all organ bacterial load experiments, mice were euthanized 48 hours post infection, and spleen and liver were harvested. Organs were placed into 1 mL sterile PBS on ice, and then homogenized (Mixer Mill 400; Retsch). Organ homogenates were then serially diluted in PBS, and plated on Brilliant Green agar (Oxoid) for cfu enumeration. For survival curves, mice were monitored for endpoint. For all experiments, mice were treated 30 minutes post infection with a specified subcutaneous dose of either PBS, meropenem, AM-A inhibitor, or a combination of both antibiotic and inhibitor.

The test system of series [2] is K. pneumoniae N11-2218. In words: Microdilution checkerboard / MIC. It is filed as cell-based, Klebsiella pneumoniae. The settings on record: meropenem alone. Here is the method:
FIC values were determined by standard methods^27 setting up checkerboards with 8 concentrations of each meropenem and AM-A in serial ½ dilutions. Experiments were done in duplicate and the mean used for calculation. The MIC for each compound was the lowest concentration of compound showing no growth. The FIC for each compound was calculated as the concentration of the compound in the presence of co-compound for a well showing no growth, divided by the MIC for that compound. The FIC index is the sum of the two FICs.
For orientation: Dilution methods test growth across graded concentrations, often in twofold steps.

Series [3] concerns K. pneumoniae N11-2218. In words: Mouse systemic infection, organ bacterial load. The settings on record: meropenem alone, doses below 50 mg/kg. It is filed as in vivo, CD1 mice.
Text: as §1, §2

For series [4] the following is noted: rats, i.v.; cited from earlier work.

Consider `C[C@@H](O)[C@H]1C(=O)N2C(C(=O)O)=C(S[C@@H]3CN[C@H](C(=O)N(C)C)C3)[C@H](C)[C@H]12` [meropenem, reference compound], for which, in the series on K. pneumoniae N11-2218 [1], the “prevention of lethal infection” value was “unable to prevent lethal infection”. The minimal inhibitory concentration (MIC) (commonly the smallest concentration in the dilution series that meets the test's criterion for growth inhibition) in the series on K. pneumoniae N11-2218 [2] (Klebsiella pneumoniae, N112218, read-out: MIC) worked out at 32 µg/mL; with K. pneumoniae N11-2218 [2], 32 µg/mL. Besides, in the series on K. pneumoniae N11-2218 [3], the “response of infection to meropenem monotherapy” value was “resistant”.

As to `O=C(O)CN[C@H](CN[C@@H](CC(=O)O)C(=O)O)C(=O)O` [AM-B, aspergillomarasime B], in series [4], the LD50 (in general, the dose at which mortality reaches 50%) is 660 mg/kg.
